Assay results from patent US20260226068A1, “IMIDAZOTRIAZINE IL-17A MODULATORS AND USES THEREOF” (DICE ALPHA, INC., priority 2023, published 2026).

Assays:
IL-17A/A = target: T1, IL-17A/A (Homo sapiens, UniProt Q16552); assay: IL-17A/A HEK-Blue cell assay (SEAP reporter); format: cell-based; conditions: HEK-Blue IL-17A reporter cells, IL17A/A 5 ng/mL, 20 hours, SEAP read at A630; read-out: HEK-Blue IL17AA (IC50 for IL-17A/A inhibition)
T1 construct: purchased Genscript Z03228
T1 sequence (Q16552 24-155): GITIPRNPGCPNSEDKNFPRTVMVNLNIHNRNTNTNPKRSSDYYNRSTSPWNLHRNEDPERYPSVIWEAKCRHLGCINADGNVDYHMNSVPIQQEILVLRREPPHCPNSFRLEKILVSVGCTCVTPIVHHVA

IL-17A/F = target: T2, IL-17A/F (Homo sapiens, UniProt Q16552+Q96PD4); assay: IL-17A/F HEK-Blue cell assay (SEAP reporter); format: cell-based; conditions: HEK-Blue IL-17A reporter cells, IL17A/F 5 ng/mL, 20 hours, SEAP read at A630; read-out: HEK-Blue IL17AF (IC50 for IL-17A/F inhibition)
T2 construct: purchased R&D Systems
T2 sequence (Q16552 24-155): T1 sequence (Q16552 24-155)
T2 sequence (Q96PD4 31-163): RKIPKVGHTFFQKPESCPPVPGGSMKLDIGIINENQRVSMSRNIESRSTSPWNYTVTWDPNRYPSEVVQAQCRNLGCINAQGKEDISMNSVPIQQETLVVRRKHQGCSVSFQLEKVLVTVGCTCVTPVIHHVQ

IC50 (IL-17A/A)	IC50 (IL-17A/F)	SMILES
< 100 nM	> 1000 nM	CCn1ncnc1C(=O)N[C@H](c1cn2nc(C[C@H]3C[C@@H](C(F)(F)F)CNC3=O)c(C3CCOCC3)nc2n1)C(C1CC1)C1CC1 [Compound 385, N—((S)-2,2-dicyclopropyl-1-(2-(((3R,5R)-2-oxo-5-(trifluoromethyl)piperidin-3-yl)methyl)-3-(tetrahydro-2H-pyran-4-yl)imidazo[1,2-b][1,2,4]triazin-6-yl)ethyl)-1-ethyl-1H-1,2,4-triazole-5-carboxamide]
< 100 nM	> 1000 nM	CCn1ncnc1C(=O)N[C@H](c1cn2nc(C[C@H]3C[C@@H](C(F)(F)F)CNC3=O)c(C(C)C)nc2n1)C1CCC(F)(F)CC1 [Compound 386, N—((S)-(4,4-difluorocyclohexyl)(3-isopropyl-2-(((3R,5R)-2-oxo-5-(trifluoromethyl)piperidin-3-yl)methyl)imidazo[1,2-b][1,2,4]triazin-6-yl)methyl)-1-ethyl-1H-1,2,4-triazole-5-carboxamide]
100 to 1000 nM	> 1000 nM	CCn1ncnc1C(=O)N[C@H](c1cn2nc(C[C@H]3C[C@H](C)CNC3=O)c(C3CCOCC3)nc2n1)C1CCC(F)(F)CC1 [Compound 387]
< 100 nM	> 1000 nM	CCn1ncnc1C(=O)N[C@H](c1cn2nc(C[C@@H]3C[C@H](C)CNC3=O)c(C3CCOCC3)nc2n1)C1CCC(F)(F)CC1 [Compound 388]
100 to 1000 nM	> 1000 nM	CCn1nccc1C(=O)N[C@H](c1cn2nc(C[C@H]3C[C@@H](C)CNC3=O)c(C(C)C)nc2n1)C1CCC(F)(F)CC1 [Compound 389]
< 100 nM	100 to 1000 nM	CCn1nccc1C(=O)N[C@H](c1cn2nc(C[C@@H]3C[C@@H](C)CNC3=O)c(C(C)C)nc2n1)C1CCC(F)(F)CC1 [Compound 390]
< 100 nM	> 1000 nM	CCn1nccc1C(=O)N[C@H](c1cn2nc(C[C@H]3C[C@H](C)CNC3=O)c(C(C)C)nc2n1)C1CCC(F)(F)CC1 [Compound 391]
< 100 nM	> 1000 nM	CCn1nccc1C(=O)N[C@H](c1cn2nc(C[C@@H]3C[C@H](C)CNC3=O)c(C(C)C)nc2n1)C1CCC(F)(F)CC1 [Compound 392]
100 to 1000 nM	> 1000 nM	CCc1nonc1C(=O)N[C@H](c1cn2nc(C[C@H]3C[C@@H](C)CNC3=O)c(C3CCOCC3)nc2n1)C1CCC(F)(F)CC1 [Compound 393]
< 100 nM	> 1000 nM	CCc1nonc1C(=O)N[C@H](c1cn2nc(C[C@@H]3C[C@@H](C)CNC3=O)c(C3CCOCC3)nc2n1)C1CCC(F)(F)CC1 [Compound 394]

Continued, compound first:

SMILES	IC50 (IL-17A/A)	IC50 (IL-17A/F)
CCn1nccc1C(=O)N[C@H](c1cn2nc(C[C@H]3C[C@@H](C(F)(F)F)CNC3=O)c(N3CCN4CCCC[C@@H]4C3)nc2n1)C1CCC(F)(F)CC1 [Compound 367, N—((S)-(4,4-difluorocyclohexyl)(3-((R)-octahydro-2H-pyrido[1,2-a]pyrazin-2-yl)-2-(((3R,5R)-2-oxo-5-(trifluoromethyl)piperidin-3-yl)methyl)imidazo[1,2-b][1,2,4]triazin-6-yl)methyl)-1-ethyl-1H-pyrazole-5-carboxamide]	< 100 nM	< 100 nM
CCn1nccc1C(=O)N[C@H](c1cn2nc(C[C@H]3C[C@@H](C(F)(F)F)CNC3=O)c(N3CCN4CCC[C@@H]4C3)nc2n1)C1CCC(F)(F)CC1 [Compound 368, N—((S)-(4,4-difluorocyclohexyl)(3-((R)-hexahydropyrrolo[1,2-a]pyrazin-2(1H)-yl)-2-(((3R,5R)-2-oxo-5-(trifluoromethyl)piperidin-3-yl)methyl)imidazo[1,2-b][1,2,4]triazin-6-yl)methyl)-1-ethyl-1H-pyrazole-5-carboxamide]	< 100 nM	100 to 1000 nM
CCn1nccc1C(=O)N[C@H](c1cn2nc(C[C@H]3C[C@@H](C(F)(F)F)CNC3=O)c(C3CCCCN3CCOC)nc2n1)C1CCC(F)(F)CC1 (stereo partly drawn) [Compound 369, N-((1S)-(4,4-difluorocyclohexyl)(3-(1-(2-methoxyethyl)piperidin-2-yl)-2-(((3R,5R)-2-oxo-5-(trifluoromethyl)piperidin-3-yl)methyl)imidazo[1,2-b][1,2,4]triazin-6-yl)methyl)-1-ethyl-1H-pyrazole-5-carboxamide]	100 to 1000 nM	> 1000 nM
CCn1nccc1C(=O)N[C@H](c1cn2nc(C[C@H]3C[C@@H](C(F)(F)F)CNC3=O)c(C3CCN(CCOC)C3)nc2n1)C1CCC(F)(F)CC1 (stereo partly drawn) [Compound 370, N-((1S)-(4,4-difluorocyclohexyl)(3-(1-(2-methoxyethyl)pyrrolidin-3-yl)-2-(((3R,5R)-2-oxo-5-(trifluoromethyl)piperidin-3-yl)methyl)imidazo[1,2-b][1,2,4]triazin-6-yl)methyl)-1-ethyl-1H-pyrazole-5-carboxamide]	100 to 1000 nM	> 1000 nM
CCn1nccc1C(=O)N[C@H](c1cn2nc(C[C@H]3C[C@@H](C(F)(F)F)CNC3=O)c(CN3CCC(F)CC3)nc2n1)C1CCC(F)(F)CC1 [Compound 371, N—((S)-(4,4-difluorocyclohexyl)(3-((4-fluoropiperidin-1-yl)methyl)-2-(((3R,5R)-2-oxo-5-(trifluoromethyl)piperidin-3-yl)methyl)imidazo[1,2-b][1,2,4]triazin-6-yl)methyl)-1-ethyl-1H-pyrazole-5-carboxamide]	< 100 nM	100 to 1000 nM
O=C(N[C@H](c1cn2nc(C[C@H]3C[C@@H](C(F)(F)F)CNC3=O)c(C3CCOCC3)nc2n1)C1CCC(F)(F)CC1)c1nonc1OCC(F)(F)F [Compound 372, N—((S)-(4,4-difluorocyclohexyl)(2-(((3R,5R)-2-oxo-5-(trifluoromethyl)piperidin-3-yl)methyl)-3-(tetrahydro-2H-pyran-4-yl)imidazo[1,2-b][1,2,4]triazin-6-yl)methyl)-4-(2,2,2-trifluoroethoxy)-1,2,5-oxadiazole-3-carboxamide]	< 100 nM	100 to 1000 nM
O=C(N[C@H](c1cn2nc(C[C@H]3C[C@@H](C(F)(F)F)CNC3=O)c(C3CCOCC3)nc2n1)C1CCC(F)(F)CC1)c1nonc1CN1CC(F)C1 [Compound 373, N—((S)-(4,4-difluorocyclohexyl)(2-(((3R,5R)-2-oxo-5-(trifluoromethyl)piperidin-3-yl)methyl)-3-(tetrahydro-2H-pyran-4-yl)imidazo[1,2-b][1,2,4]triazin-6-yl)methyl)-4-((3-fluoroazetidin-1-yl)methyl)-1,2,5-oxadiazole-3-carboxamide]	< 100 nM	100 to 1000 nM
CCn1nccc1C(=O)N[C@H](c1cn2nc(C[C@H]3C[C@@H](C(F)(F)F)CNC3=O)c(CN3CCOCC3)nc2n1)[C@H]1CC[C@H](C)CC1 [Compound 374, 1-ethyl-N—((S)-((1r,4S)-4-methylcyclohexyl)(3-(morpholinomethyl)-2-(((3R,5R)-2-oxo-5-(trifluoromethyl)piperidin-3-yl)methyl)imidazo[1,2-b][1,2,4]triazin-6-yl)methyl)-1H-pyrazole-5-carboxamide]	< 100 nM	100 to 1000 nM
CCn1nccc1C(=O)N[C@H](c1cn2nc(C[C@H]3C[C@@H](C(F)(F)F)CNC3=O)c(CN3CCC(F)(F)C3)nc2n1)[C@H]1CC[C@H](C)CC1 [Compound 375, N—((S)-(3-((3,3-difluoropyrrolidin-1-yl)methyl)-2-(((3R,5R)-2-oxo-5-(trifluoromethyl)piperidin-3-yl)methyl)imidazo[1,2-b][1,2,4]triazin-6-yl)((1r,4S)-4-methylcyclohexyl)methyl)-1-ethyl-1H-pyrazole-5-carboxamide]	< 100 nM	100 to 1000 nM
Cn1nccc1C(=O)N[C@H](c1cn2nc(C[C@H]3C[C@@H](C(F)(F)F)CNC3=O)c(CC3COC3)nc2n1)C1CCCCCC1 [Compound 377, N—((S)-cycloheptyl(3-(oxetan-3-ylmethyl)-2-(((3R,5R)-2-oxo-5-(trifluoromethyl)piperidin-3-yl)methyl)imidazo[1,2-b][1,2,4]triazin-6-yl)methyl)-1-methyl-1H-pyrazole-5-carboxamide]	< 100 nM	100 to 1000 nM
O=C(N[C@H](c1cn2nc(C[C@H]3C[C@@H](C(F)(F)F)CNC3=O)c(C3CCOCC3)nc2n1)C1CCC(F)(F)CC1)c1ccnn1CCN1CCOCC1 [Compound 378, N—((S)-(4,4-difluorocyclohexyl)(2-(((3R,5R)-2-oxo-5-(trifluoromethyl)piperidin-3-yl)methyl)-3-(tetrahydro-2H-pyran-4-yl)imidazo[1,2-b][1,2,4]triazin-6-yl)methyl)-1-(2-morpholinoethyl)-1H-pyrazole-5-carboxamide]	< 100 nM	> 1000 nM
CCn1nccc1C(=O)N[C@H](c1cn2nc(C[C@H]3CCCNC3=O)c(C3CCOCC3)nc2n1)C1CCC(F)(F)CC1 [Compound 379]	< 100 nM	> 1000 nM
CCn1nccc1C(=O)N[C@H](c1cn2nc(C[C@@H]3CCCNC3=O)c(C3CCOCC3)nc2n1)C1CCC(F)(F)CC1 [Compound 380]	< 100 nM	> 1000 nM
CCn1ncnc1C(=O)N[C@H](c1cn2nc(C[C@H]3C[C@@H](C(F)(F)F)CNC3=O)c(C3CCOCC3)nc2n1)[C@H]1CC[C@H](C)CC1 [Compound 383, 1-ethyl-N—((S)-((1r,4S)-4-methylcyclohexyl)(2-(((3R,5R)-2-oxo-5-(trifluoromethyl)piperidin-3-yl)methyl)-3-(tetrahydro-2H-pyran-4-yl)imidazo[1,2-b][1,2,4]triazin-6-yl)methyl)-1H-1,2,4-triazole-5-carboxamide]	< 100 nM	100 to 1000 nM
